In article PMC3943356 (Bioorganic & medicinal chemistry letters, 2013):
Counter-ions that a name gives are not always drawn. Like-named read-outs stand apart in the source and are kept apart here.

How the values were obtained:
[1] = molecular target: VGLUT
[2] = system: VGLUT; test: Inhibition of 3H-L-Glu uptake into synaptic vesicles prepared from rat brain; conditions: for reduction (block) of L-Glu uptake: compound at 250 µM, 3H-L-Glu 250 µM
[3] = system: NMDA receptor; conditions: cited from earlier work
[4] = system: AMPA receptors; conditions: cited from earlier work
[5] = system: KA receptors; conditions: cited from earlier work
[6] = molecular target: VGLUT; conditions: read-out: Ki at VGLUT; cited from earlier work

## O=C(O)c1cc(C(=O)O)c2c(ccc3cc4ccccc4cc32)n1 [5,6-NQDC, Naphtho[2,3-f]quinoline-1,3-dicarboxylic acid]
[1]
  Ki: ~60 µM
[2]
  reduction (block) of L-Glu uptake: over 80%

## CC(=O)[C@H]1CC[C@H]2[C@@H]3CC[C@@H]4C[C@@H](OS(=O)(=O)O)CC[C@]4(C)[C@H]3CC[C@]12C [Pregnanolone sulfate]
[3]
  effect on NMDA receptor: inhibits
[4]
  effect on AMPA receptors: inhibits
[5]
  effect on KA receptors: inhibits
[2]
  activity relative to the endogenous substrate L-Glu: approximately 100 fold
  reduction (block) of L-Glu uptake: 85%
[2]; Lineweaver-Burk plot, increase in Km,app, no change in Vmax
  mechanism of inhibition: competitive inhibition

## O=C(O)c1cc(C(=O)O)c2ccc3cc4ccccc4cc3c2n1 [7,8-NQDC, Naphtho[2,3-h]quinoline-2,4-dicarboxylic acid]
[1]
  Ki: ~60 µM
[2]
  reduction (block) of L-Glu uptake: similarly effective

## C[C@]12CC[C@@H]3c4ccc(O)cc4CC[C@H]3[C@@H]1CCC2=O [Estrone]
[2]
  reduction (block) of L-Glu uptake: did not block L-Glu uptake to any appreciable level

## C[C@]12CC[C@@H]3c4ccc(OC(=O)CCC(=O)O)cc4CC[C@H]3[C@@H]1CCC2=O [Estrone hemisuccinate]
[2]
  reduction (block) of L-Glu uptake: inactive

## Pregnenolone sulfate
[3]
  effect on NMDA receptor: potentiate
[2]
  reduction (block) of L-Glu uptake: 70%

## CC(C)CC1C(=O)N2CCCC2C2(O)OC(NC(=O)C3C=C4c5cccc6[nH]c(Br)c(c56)CC4N(C)C3)(C(C)C)C(=O)N12 (centres unmarked) [bromocryptine]
[6]
  Ki: ~22 µM

## N[C@@H](CCC(=O)O)C(=O)O [L-Glu, Glutamate]
[2]; read-out: Km of L-Glu uptake, Lineweaver-Burk plot, Fig. 3
  Km: 2500 µM

## CC(=O)[C@H]1CC[C@H]2[C@@H]3CC=C4C[C@@H](O)CC[C@]4(C)[C@H]3CC[C@]12C [Pregnenolone]
[2]
  reduction (block) of L-Glu uptake: did not block L-Glu uptake to any appreciable level
